Source: patent US20100254951A1, “Nerve Regeneration Promoting Agent” (MOCHIDA PHARMACEUTICAL CO., LTD., priority 2005, published 2010)

What was measured:
[1] = tested on: adult rat hippocampal dentate gyrus; test: Effect on neurogenesis in adult rat hippocampal dentate gyrus region (BrdU-NeuN double positive cells); format: in vivo; settings: 300 mg/kg/day gavaged for 7 weeks
Description: 18-week-old Wister male rats fed with a fish oil-free diet for three generations were used. To DHA group, 4,7,10,13,16,19-docosahexaenoate suspended in a 5% gum arabic solution was gavaged at 300 mg/kg/day every day for 7 weeks. To control group, in the same way as above, only a 5% gum arabic solution was gavaged in the same dose. From 2 weeks after initiation of oral administration, BrdU dissolved in PBS (−) was injected to rats intraperitoneally once a day for 5 days (50 mg/kg).
4 weeks after completion of BrdU administration, PBS (−) was perfused from the hearts of the rats, followed by fixation with 4% paraformaldehyde. The brains were isolated and fixed with paraformaldehyde for further 24 hours, followed by exchange for 25% sucrose. Coronal sections (40 μm) were cut by a microtome, and nuclei labeled with BrdU were detected by the following procedures. […]
Six sections were selected at intervals of 240 μm from the rostro caudal region of a granular cell layer in the whole dentate gyrus, and BrdU-NeuN double positive cells in the granular cell layer and subgranular zone (inside zone along the granular cell layer) were counted. […] The referential volume of the granular cell layer was calculated from the areas of the sampled sections.

[2] = tested on: neural stem cells and cells differentiated from neural stem cells; test: Effect on apoptosis of neural stem cells and cells differentiated from neural stem cells (pycnotic cells by PI staining, TUNEL); format: cell-based, rat; settings: cultivated under differentiation induction for 7 days; n=6; P=0.01 vs control
Description: In the same way as Experimental Example 1, neural stem cells were divided into DHA group and control (DHA free) group and cultivated under culture conditions for differentiation induction for 7 days, and pycnotic cells were evaluated by PI staining.
Apoptosis in the pycnotic cells were confirmed by TUNEL staining. The TUNEL staining was performed using Red In Situ Apoptosis Detection kit (Chemicon). Cells of the DHA group and the control group were cultivated for 7 days under the above-mentioned differentiation conditions and fixed with 4% paraformaldehyde, followed by incubation together with digoxigenin-dUTP in the presence of TdT at 37° C. for 1 hour. TUNEL-labeled cells were detected with Rhodamine conjugated anti-digoxigenin antibody and observed using confocal scanning laser microscopy.

neural stem cells = test: Effect on proliferative activity of neural stem cells (BrdU incorporation); format: cell-based, rat; settings: 10 μM BrdU, cultivation for 24 hours under differentiation induction; n=6; P=0.02 vs control
Description: In the same way as Experimental Example 1, neural stem cells were divided into DHA group and control (DHA free) group, and 10 μM 5-bromo-2′-droxyuridine (BrdU; Sigma) was added under culture conditions for differentiation induction, followed by cultivation for 24 hours. Thereafter, the cells were treated with 2N HCl at 37° C. for 10 minutes and treated with 0.1 M borate buffer (Na2B4O7, pH 8.5) for 5 minutes. The cell were treated with anti-mouse BrdU antibody (1:1000 Chemicon) and then treated with FITC-labeled secondary antibody.
7 random fields per well were sampled, and the numbers of BrdU-positive cells were counted to calculate a ratio of the number of BrdU-positive cells to the number of total cells. The number of total cells was counted by PI staining. Statistical analysis was evaluated by student's t-test.

CC/C=C\C/C=C\C/C=C\C/C=C\C/C=C\C/C=C\CCC(=O)O [DHA, docosahexaenoic acid]
number of BrdU-NeuN double positive cells in the whole granular cell layer of the dentate gyrus compared to the control group ([1]; 18-week-old Wister male rats): 1.6 fold | average number of the BrdU-NeuN double positive cells in the respective sections ([1]; n=3, P=0.005 vs control): 878±72.3 cells | ratio of the pycnotic cells to the number of total cells [2]: 54.3±3.7% | ratio of BrdU-positive cells to the number of total cells (neural stem cells): 16.3±1.0%
